The test deals with Adult L. serricata (blowflies). Put plainly: Test A: adult blowflies on blood agar containing test compound, scored by number of dead flies. It counts as in vivo. Particulars: 4 flies in test. The protocol: Adult L. serricata (blowflies): Adult flies are placed on beds of blood agar (in individual test wells; 4 flies per well) in which test compound, (3-bromo-N-[4-chloro-2-methyl-6-[(methylamino)carbonyl]phenyl]-1-(3-chloro-2-pyridinyl)-1H-pyrazole-5-carboxamide), was dissolved/suspended prior to hardening of agar. Flies can take up test compound by both ingestion and contact. Assays are scored by number of dead flies at 2 hours, 4 hours, and 24 hours.

Consider `CCOP(=S)(OCC)Oc1nc(Cl)c(Cl)cc1Cl` [Chloropyriphos, O,O-diethyl-O-3,5,6-trichloro-2-pyridyl-phosphorothioate], for which the “Number dead flies at 2 hours” value runs as follows: (Rate 1 ppm in blood agar) 0; (Rate 10 ppm in blood agar) 1; (Rate 25 ppm in blood agar) 3; (Rate 50 ppm in blood agar) 4; (Rate 100 ppm in blood agar) 4. Moreover, the “Number dead flies at 4 hours” value runs as follows: (Rate 1 ppm in blood agar) 1; (Rate 10 ppm in blood agar) 4; (Rate 25 ppm in blood agar) 4; (Rate 50 ppm in blood agar) 4; (Rate 100 ppm in blood agar) 4. Moreover, the “Number dead flies at 24 hours” value is, setting by setting: (Rate 1 ppm in blood agar) 4; (Rate 10 ppm in blood agar) 4; (Rate 25 ppm in blood agar) 4; (Rate 50 ppm in blood agar) 4; (Rate 100 ppm in blood agar) 4.
With `CNC(=O)c1cc(Cl)cc(C)c1NC(=O)c1cc(Br)nn1-c1ncccc1Cl` [Test Compound, 3-bromo-N-[4-chloro-2-methyl-6-[(methylamino)carbonyl]phenyl]-1-(3-chloro-2-pyridinyl)-1H-pyrazole-5-carboxamide], the “Number dead flies at 2 hours” value was determined as 0 (Rate 1 ppm in blood agar); 0 (Rate 10 ppm in blood agar); 0 (Rate 25 ppm in blood agar); 0 (Rate 50 ppm in blood agar); 0 (Rate 100 ppm in blood agar). The “Number dead flies at 4 hours” value was 0 (Rate 1 ppm in blood agar); 0 (Rate 10 ppm in blood agar); 0 (Rate 25 ppm in blood agar); 0 (Rate 50 ppm in blood agar); 0 (Rate 100 ppm in blood agar). Besides, the “Number dead flies at 24 hours” value (Rate 1 ppm in blood agar) turned out to be 0; the “Number dead flies at 24 hours” value (Rate 10 ppm in blood agar) turned out to be 1; the “Number dead flies at 24 hours” value (Rate 25 ppm in blood agar) was determined as 2; the “Number dead flies at 24 hours” value (Rate 50 ppm in blood agar) was determined as 2; the “Number dead flies at 24 hours” value (Rate 100 ppm in blood agar) was found to be 3.

The record behind these values is US20100197738A1, “FLY CONTROL METHOD” (priority 2007, published 2010).
